Data on 5 compounds can be found in publication PMC7170507, “Biosynthesis of depsipeptides with a 3-hydroxybenzoate moiety and selective anticancer activities involves a chorismatase” (The Journal of Biological Chemistry, 2020).

The subject of one data set is SGC7901. As to the kind of experiment: cells. The following applies: Homo sapiens, SGC-7901, 72 h. Details: species or system human cancer cell lines; CCK8 cell viability assay, absorbance at 450 nm. The protocol: (§1) Anticancer activities were evaluated by using human lung cancer cells PC9, human colorectal cancer cells Sw620, and human melanoma cells A375. Toxicity study was conducted by using three types of normal cells, 16HBE (an immortalized human bronchial epithelial cells), NCM460 (a normal human colon mucosal epithelial cell line), and HaCaT (a spontaneously immortalized keratinocyte cell line from adult human skin). All the cell lines were obtained from the Shanghai Institute of Cell Biology, Chinese Academy of Sciences. The cell cultivation media (Gibco) were supplemented with 10% fetal bovine serum, 100 units/ml penicillin, and 100 μg/ml streptomycin. The cells were maintained in a humidified atmosphere with 5% CO2 at 37 °C. Half-maximal inhibitory concentration (IC50) was determined by a CCK8 assay (Dojindo, Tokyo, Japan). Briefly, the cells were seeded in 96-well plates at a density of 3 × 10^3 cells/well and incubated for 24 h at 37 °C. Then the cells were treated with various concentrations of compound and incubated for 72 h. Afterward, 10 μl of CCK8 reagent was added to each well before a further incubation for 0.5–4.0 h at 37 °C. Finally, the absorbance of each well in the 96-well plate was measured at 450 nm using microplate reader. Because the 3-FAS moiety has been proposed to be the pharmacophore of anticancer activities in NATs ([3], [11]), we wished to know whether compounds 1–4 with the alternative 3-HBA moiety, instead of 3-FAS, would retain anticancer activities. The carcinoma cell lines of human lung (PC9), colon (Sw620), and melanoma (A375) were firstly selected to evaluate the activities of them, using as positive control the chemotherapeutic drug cisplatin. […] This is consistent with the activities previously shown for unantimycin A, which structurally differs from 1 at the C4 alkyl group and which has shown moderate cytotoxicity (IC50 = ∼10 μM) against human cervix epidermoid carcinoma, promyelocytic leukemia, and sarcoma cell lines ([13]). […] Further work will be required to establish convincingly that the apparently selective anticancer activities of 1–4 are endowed by the absence of binding to the quinone reduction site of the cytochrome bc1 complex, which makes antimycin A lethal to the mitochondrial respiratory chain ([12], [20]). Moreover, the broad-spectrum anticancer activities of 1–4 were evaluated by using six other carcinoma cell lines (Table S9).

The next data set has as its system HT29. As to the kind of experiment: cells. The following applies: Homo sapiens, HT-29, 72 h. Details: species or system human cancer cell lines; CCK8 cell viability assay, absorbance at 450 nm. Here is the method:
as §1

A further data set deals with A549. As to the kind of experiment: cells. Details: species or system human cancer cell lines; CCK8 cell viability assay, absorbance at 450 nm. The following applies: Homo sapiens, 72 h. The protocol: as §1
The subject of another data set is HCT-8. As to the kind of experiment: cells. Also on record: species or system human cancer cell lines; CCK8 cell viability assay, absorbance at 450 nm. The following applies: Homo sapiens, 72 h. Here is the method: as §1
The next data set deals with Hela. In words: cells. Details: species or system human cancer cell lines; CCK8 cell viability assay, absorbance at 450 nm. The following applies: Homo sapiens, 72 h. The protocol: as §1
A further data set relates to HepG2. In words: cells. Also on record: species or system human cancer cell lines; CCK8 cell viability assay, absorbance at 450 nm. The following applies: Homo sapiens, 72 h. The protocol: as §1
In data set [1] the test system is T1, C=C(O[C@@H]1C=C(C(=O)O)C=C[C@H]1O)C(=O)O.
T1 construct: catalytic Glu-325
In words: purified protein. The data set is classed as biochemical, Streptomyces conglobatus. The following applies: 50 mM Tris-HCl pH 8.0, 0.5 μM enzyme, 50-300 μM chorismate, 0.5 mM NADH, LDH.

As to `CCC(C)C1OC(=O)C(C)(C)C(=O)C(Cc2ccccc2)OC(=O)C(C(C)C)OC(=O)C(NC(=O)c2cccc(O)c2)C(C)OC1=O` (centres unmarked) [compound 1, unantimycin B], the IC50 with SGC7901 came to 11.9 ± 0.1 µM; in the data set on HT29 it was 19.4 ± 0.1 µM; in the data set with A549 it was 7.7 ± 0.07 µM; in the data set with HCT-8, 17.9 ± 1.4 µM; in the data set with Hela it was 18.2 ± 0.2 µM; in the data set with HepG2 it was 13.4 ± 0.1 µM.

For Nat-hyg5 (Streptomyces conglobatus), in data set [1], the Km came to 54 ± 6 µM and the kcat came out at 0.084 ± 0.003 s⁻¹.

In the case of `CC(C)C1OC(=O)C(NC(=O)c2cccc(O)c2)C(C)OC(=O)C(C(C)C)OC(=O)C(C)(C)C(=O)C(Cc2ccccc2)OC1=O` (centres unmarked) [compound 3, 3], the IC50 in the data set on SGC7901 was found to be 6.63 ± 0.17 µM; in the data set on HT29, 17.6 ± 0.9 µM; with A549, 2.32 ± 0.01 µM; with HCT-8, 10.9 ± 0.8 µM; in the data set with Hela, 23 ± 0.4 µM; with HepG2, 17.5 ± 0.6 µM.

In the case of `CC(C)C1OC(=O)C(NC(=O)c2cccc(O)c2)C(C)OC(=O)C(C(C)C)OC(=O)C(C)(C)C(O)C(Cc2ccccc2)OC1=O` (centres unmarked) [compound 4, 4], the IC50 in the data set with SGC7901 was 10.1 ± 0.3 µM; in the data set on HT29 it was 17.2 ± 0.8 µM; in the data set on A549, 2.97 ± 0.01 µM; in the data set on HCT-8, 8.95 ± 0.13 µM; in the data set on Hela it was 23.6 ± 0.5 µM; in the data set on HepG2 it was 18.3 ± 0.7 µM.

As to `CCC(C)C1OC(=O)C(C)(C)C(O)C(Cc2ccccc2)OC(=O)C(C(C)C)OC(=O)C(NC(=O)c2cccc(O)c2)C(C)OC1=O` (centres unmarked) [compound 2, 2], the IC50 in the data set with SGC7901 is 9.57 ± 0.22 µM; in the data set on HT29 it was 14.9 ± 0.3 µM; in the data set on A549 it was 2.99 ± 0.02 µM; with HCT-8, 9.23 ± 0.16 µM; in the data set on Hela it was 15.3 ± 1.5 µM; with HepG2, 15.2 ± 0.7 µM.
